Tests used:
[1] = tested on: advanced solid tumors; conditions: cited from earlier work
[2] = target: Wee1 (h) (Homo sapiens, UniProt P30291); assay: Wee1(h) kinase activity experiment ([γ-33P]-ATP, filtermat, scintillation counting); assay type: biochemical; conditions: 10 μM ATP, 40 minutes at room temperature; read-out: IC50, inhibitory effect on Wee1 kinase activity
Protocol: Determination of the Inhibitory Effect of Compounds on Wee1 Kinase Using Wee1(h) Kinase Activity Experiment
Wee1 (h) is incubated with 20 mM Tris/HCl pH 8.5, 0.2 mM EDTA, 500 μM […], 10 mM MgAcetate and 10 μM [γ-^33P]-ATP. Then 50 times the concentration of the testing compound in 100% DMSO was added until the final concentration was 10 μM, then mixed, and diluted to 10 concentrations in successive series according to the ratio of 1:3 and 1:10 respectively (the last concentration was DMSO negative control): 10 μM, 3 μM, 1 μM, 0.3 μM, 0.1 μM, 0.03 μM, 0.01 μM, 0.003 μM, 0.001 μM, 0 μM. The reaction is initiated by the addition of the Mg/ATP mix. After incubation for 40 minutes at room temperature, the reaction is stopped by the addition of phosphoric acid to a concentration of 0.5%. 10 μL of the reaction liquor is then spotted onto a P30 filtermat and washed four times in 0.425% phosphoric acid and once in methanol prior to drying and scintillation counting. Each compound sample is duplicated in duplicate. The negative control was the components except of Wee1 enzyme, and the positive control was the components of adding 30% phosphoric acid to terminate the reaction. Table 1 summarizes the inhibitory effects of compounds on Wee1 kinase activity (IC50).

[3] = tested on: LoVo cell; assay: Inhibition of proliferation of LoVo cell, CCK-8 method; assay type: cell-based; conditions: Homo sapiens, 72 h, CCK-8, 3 days, read-out: IC50, inhibitory effect on the proliferation of LoVo cell
Protocol: Determination of the Inhibitory Effect of Compounds on the Proliferation of LoVo Cell Using CCK-8 Method
(§1) The cells were digested by trypsinase and centrifuged at 800 rpm for 5 minutes, the supernatant was discarded, and the residual was resuspended with fresh medium and counted. The cells were seeded into 96-well cell culture plate with a density of 6000 cells per well and incubated overnight in a 5% C02 incubator at 37° C. The stock solutions of test compounds were serially diluted to 8 concentrations by DMSO at the ratios of 1:3 and 1:10, respectively. The final concentration of compound was: 10 μM, 3.3 μM, 1 μM, 0.33 μM, 0.1 μM, 0.033 μM, 0.01 μM and 0 μM. 5 μL diluent of each concentration was added to 120 μL of medium (25 times diluted) and mixed by shaking. The overnight cell plates were taken and the culture medium was removed, 195 μL of fresh medium was added to each well, and 5 μL of diluted medium containing the corresponding concentration of the test compound was added respectively (the final concentration of DMSO is 1‰), and the culture plate was then placed in a 5% CO2 incubator at 37° C. for 3 days. After removing the original solution, 90 μL of fresh serum-free 1640 medium was added, then 10 μL of CCK-8 reagent was added to each well and continued incubation for 2 hours. The 96-well plates were placed in a multi-function reader to read the absorbance at the wavelength of 450/650 nm. Cell viability (%)=(ODcompound−ODbackground)/(ODDMSO−ODbackground)×100. GraphPad Prism 5.0 was used to analyze the data. The inhibitory activity of compounds on cell proliferation was plotted based on cell viability and the logarithm of compound concentration. The IC50 value was fitted by a sigmoidal dose response curve equation Y=100/(1+10^(Log C−Log IC50)), wherein C was the concentration of compound.
Table 2 summarizes the inhibitory effect data (IC50) of compounds on the proliferation of LoVo cell

[4] = tested on: NCI-H1299 cell; assay: Inhibition of proliferation of NCI-H1299 cell, CCK-8 method; assay type: cell-based; conditions: Homo sapiens, NCI-H1299, 72 h; CCK-8, 3 days; read-out: IC50, inhibitory effect on the proliferation of NCI-H1299 cell
Protocol: Determination of the Inhibitory Effect of Compounds on the Proliferation of NCI-H1299 Cell Using CCK-8 Method
as §1, with “1000” for “6000”, “CO2” for “C02”
Table 3 summarizes the inhibitory effect data (IC50) of compounds on the proliferation of NCI-H1299 cell.

[5] = 176 evaluable patients, AZD1775 alone or in combination with chemotherapy

Wee1 (h), sequence (P30291 whole entry): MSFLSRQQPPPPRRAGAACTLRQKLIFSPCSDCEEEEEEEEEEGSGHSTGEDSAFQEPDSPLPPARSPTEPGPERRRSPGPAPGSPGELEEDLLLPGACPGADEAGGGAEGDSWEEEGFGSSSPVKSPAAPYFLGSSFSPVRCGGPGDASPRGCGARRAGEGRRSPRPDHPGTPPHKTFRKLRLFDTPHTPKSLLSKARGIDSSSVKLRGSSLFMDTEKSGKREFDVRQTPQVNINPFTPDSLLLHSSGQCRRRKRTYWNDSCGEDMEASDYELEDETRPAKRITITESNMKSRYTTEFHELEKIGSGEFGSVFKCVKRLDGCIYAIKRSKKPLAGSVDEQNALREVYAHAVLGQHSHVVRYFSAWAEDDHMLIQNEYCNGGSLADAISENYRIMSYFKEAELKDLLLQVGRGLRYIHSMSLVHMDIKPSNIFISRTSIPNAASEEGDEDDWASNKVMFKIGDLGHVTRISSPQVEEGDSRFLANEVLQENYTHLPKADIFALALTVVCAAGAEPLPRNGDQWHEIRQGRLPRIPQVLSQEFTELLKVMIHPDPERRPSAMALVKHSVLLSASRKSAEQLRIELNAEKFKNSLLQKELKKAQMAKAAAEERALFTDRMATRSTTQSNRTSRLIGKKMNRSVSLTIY

| IC50 [2] | IC50 [3] | IC50 [4] | Structure (SMILES) | patients with partial response [1, 5] | patients with stable disease as the best response [1, 5] | response rate in patients with TP53 mutation ([1]; TP53 mutation (n=19)) | response rate in TP53 wild-type patients ([1]; TP53 wild-type (n=33)) |
| --- | --- | --- | --- | --- | --- | --- | --- |
| – | 124 nM | 182 nM | Cc1cc(Nc2ncc3c(n2)N2CCN=C2N(c2c(Cl)cccc2Cl)C3=O)cc(F)c1N1C[C@@H](C)N(C)[C@@H](C)C1 [Example 5, 6-(2,6-dichlorophenyl)-2-((3-fluoro-5-methyl-4-((3S,5R)-3,4,5-trimethylpiperazin-1-yl)phenyl)amino)-8,9-dihydroimidazo[1,2-a]pyrimido[5,4-e]pyrimidin-5(6H)-one] | – | – | – | – |
| 23 nM | 533 nM | 940 nM | Cc1cc(Nc2ncc3c(n2)N2CCN=C2N(c2c(Cl)cccc2Cl)C3=O)ccc1C1CCNCC1 [Example 9, 6-(2,6-dichlorophenyl)-2-((3-methyl-4-(piperidin-4-yl)phenyl)amino)-8,9-dihydroimidazo[1,2-a]pyrimido[5,4-e]pyrimidin-5(6H)-one] | – | – | – | – |
| 26 nM | 73 nM | 85 nM | Cc1cc(Nc2ncc3c(n2)N2CCN=C2N(c2c(Cl)cccc2Cl)C3=O)cc(F)c1C1CCN(C)CC1 [Example 13, 6-(2,6-dichlorophenyl)-2-((3-fluoro-5-methyl-4-(1-methylpiperidin-4-yl)phenyl)amino)-8,9-dihydroimidazo[1,2-a]pyrimido[5,4-e]pyrimidin-5(6H)-one] | – | – | – | – |

More lines, now with the values behind:

| Structure (SMILES) | IC50 [2] | IC50 [3] | IC50 [4] | patients with partial response [1, 5] | patients with stable disease as the best response [1, 5] | response rate in patients with TP53 mutation ([1]; TP53 mutation (n=19)) | response rate in TP53 wild-type patients ([1]; TP53 wild-type (n=33)) |
| --- | --- | --- | --- | --- | --- | --- | --- |
| C=CCn1c(=O)c2cnc(Nc3ccc(N4CCN(C)CC4)cc3)nc2n1-c1cccc(C(C)(C)O)n1 [AZD1775] | – | – | – | 10% | 53% | 21% | 12% |
| Cc1cc(Nc2ncc3c(n2)N2CCN=C2N(c2c(Cl)cccc2Cl)C3=O)ccc1N1C[C@@H](C)N[C@@H](C)C1 [Example 1, 6-(2,6-dichlorophenyl)-2-((4-((3S,5R)-3,5-dimethylpiperazin-1-yl)-3-methylphenyl)amino)-8,9-dihydroimidazo[1,2-a]pyrimido[5,4-e]pyrimidin-5(6H)-one] | 37 nM | 126 nM | 71 nM | – | – | – | – |
| [2H]C([2H])([2H])N1[C@H](C)CN(c2ccc(Nc3ncc4c(n3)N3CCN=C3N(c3c(Cl)cccc3Cl)C4=O)cc2C)C[C@@H]1C [Example 2, 6-(2,6-dichlorophenyl)-2-((4-((3S,5R)-3,5-dimethyl-4-(methyl-d3)piperazin-1-yl)-3-methylphenyl)amino)-8,9-dihydroimidazo[1,2-a]pyrimido[5,4-e]pyrimidin-5(6H)-one] | 21 nM | 158 nM | 123 nM | – | – | – | – |
| C[C@@H]1CN(c2ccc(Nc3ncc4c(n3)N3CCN=C3N(c3c(Cl)cccc3Cl)C4=O)cc2Br)C[C@H](C)N1C [Example 3, 2-((3-bromo-4-((3S,5R)-3,4,5-trimethylpiperazin-1-yl)phenyl)amino)-6-(2,6-dichlorophenyl)-8,9-dihydroimidazo[1,2-a]pyrimido[5,4-e]pyrimidin-5(6H)-one] | – | 219 nM | 382 nM | – | – | – | – |
| Cc1cc(Nc2ncc3c(n2)N2CCN=C2N(c2c(Cl)cccc2Cl)C3=O)ccc1N1C[C@H](C)N(C)[C@@H](C)C1 [Example 8, 6-(2,6-dichlorophenyl)-2-((3-methyl-4-((3S,5S)-3,4,5-trimethylpiperazin-1-yl)phenyl)amino)-8,9-dihydroimidazo[1,2-a]pyrimido[5,4-e]pyrimidin-5(6H)-one] | 30 nM | 163 nM | 214 nM | – | – | – | – |
| Cc1cc(Nc2ncc3c(n2)N2CCN=C2N(c2c(Cl)cccc2Cl)C3=O)ccc1C1CCN(C)CC1 [Example 12, 6-(2,6-dichlorophenyl)-2-((3-methyl-4-(1-methylpiperidin-4-yl)phenyl)amino)-8,9-dihydroimidazo[1,2-a]pyrimido[5,4-e]pyrimidin-5(6H)-one] | 23 nM | 78 nM | 79 nM | – | – | – | – |
